In US20180071238A1, “Compositions and Methods for Traumatized Tissues Using Zinc Chelators” (Ohio University, priority 2015, published 2018):

Assay: Zinc dissolution and precipitation in solutions of different pH (naked eye and microscope)
Format: physicochemical
Conditions: FIGS. 7A-7C
Method: Zinc dissolution in acidic solution and zinc precipitation or crystallization in neutral or basic solution is shown in the photographs in FIGS. 7A-7C. The tests were carried out by the application of zinc into solutions.

With `[Zn+2]` [zinc] the “solubility of zinc in solution” value (acidic conditions) was “generally soluble” and the “solubility of zinc in solution” value (neutral and basic conditions) was “tends to crystallize or precipitate”.
